Reference: patent US8940777B2 (priority 2008, dated 2015)
Where two headings read alike, the source gives them in different places.

Tested on: Rhizoctonia solani
Format: in vivo
Conditions: cucumber (Sagami Hanjiro) seeds coated, 7 days after sowing
Experimental: Thoroughly mixed were 2.5 parts of clothianidin, 1.25 parts of tolclofos-methyl, 14 parts of polyoxyethylene styryl phenyl ether, 6 parts of calcium dodecylbenzenesulfonate and 76.25 parts of xylene to give a formulation.
The formulation was diluted with acetone, to prepare an acetone mixed solution containing clothianidin and tolclofos-methyl of given concentration.
Five (5) g of cucumber (Sagami Hanjiro) seeds were coated with 1 ml of the mixed solution using a rotation mode seed treating machine (Seed Dresser, manufactured by Hans-Ulrich Hege GmbH), to give treated seeds.
The treated seeds were allowed to stand still overnight, then, sowed on a soil stuffed in a plastic pot, and covered by a soil blended with Rhizoctonia solani cultured in a bran medium. Cultivation thereof was performed at room temperature while irrigating. Seven (7) days after sowing, the number of non-budded seeds was checked, and the damaged ratio was calculated from the formula 1. Based on the damaged ratio, the control value was calculated from the formula 2.
For comparison, an acetone solution containing clothianidin of a given concentration, and an acetone solution containing tolclofos-methyl of a given concentration were prepared, and subjected to the same test. […]

## CN/C(=N\[N+](=O)[O-])NCc1cnc(Cl)s1 [Clothianidin, clothianidin]
Active ingredient amount 200 g/100 kg-seed
  Control value: 4

## COP(=S)(OC)Oc1c(Cl)cc(C)cc1Cl [Tolclofos-methyl, tolclofos-methyl]
Active ingredient amount 10 g/100 kg-seed
  Control value: 57
